Active and inactive are the calls of the source. The calls are words filed in the database; no cut-off is given here.
Experiments:
[1] = molecular target: 5-hydroxytryptamine receptor 2C (Homo sapiens) (UniProt P28335); test: Activity at human 5-HT2C receptor at 10 uM
[2] = Plasma concentration in patient with advanced solid tumor at 40 mg, po administered once daily measured on day 15 after 24 hrs; assay type: ADME, organism-based; conditions: human
[3] = Half life in Sprague-Dawley rat at 1 mg/kg, iv by UPLC-MS analysis; assay type: ADME, organism-based; conditions: in vivo
Cytochrome P450 2C9 = Cytochrome P450 2C9 (Homo sapiens, UniProt P11712); test: Inhibition of CYP2C9 in human liver microsomes up to 50 uM using diclofenac as substrate measured after 10 mins in presence of NADPH by LC-MS/MS analysis; assay type: ADME
[4] = molecular target: Histamine H2 receptor (Homo sapiens) (UniProt P25021); test: Activity at human H2 receptor at 10 uM
Sequence of Histamine H2 receptor (Homo sapiens) (P25021 whole entry): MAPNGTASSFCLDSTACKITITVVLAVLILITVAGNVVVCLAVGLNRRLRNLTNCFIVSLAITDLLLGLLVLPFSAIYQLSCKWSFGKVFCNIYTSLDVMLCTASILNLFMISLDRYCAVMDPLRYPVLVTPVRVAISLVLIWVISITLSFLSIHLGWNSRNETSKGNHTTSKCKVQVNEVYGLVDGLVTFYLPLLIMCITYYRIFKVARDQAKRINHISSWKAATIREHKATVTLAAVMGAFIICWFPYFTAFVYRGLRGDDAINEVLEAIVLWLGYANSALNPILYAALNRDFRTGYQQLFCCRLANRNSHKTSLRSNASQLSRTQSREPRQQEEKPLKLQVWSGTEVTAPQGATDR

[5] = molecular target: Endothelin-1 receptor (Homo sapiens) (UniProt P25101); test: Activity at human ETA receptor at 10 uM
Sequence of Endothelin-1 receptor (Homo sapiens) (P25101 whole entry): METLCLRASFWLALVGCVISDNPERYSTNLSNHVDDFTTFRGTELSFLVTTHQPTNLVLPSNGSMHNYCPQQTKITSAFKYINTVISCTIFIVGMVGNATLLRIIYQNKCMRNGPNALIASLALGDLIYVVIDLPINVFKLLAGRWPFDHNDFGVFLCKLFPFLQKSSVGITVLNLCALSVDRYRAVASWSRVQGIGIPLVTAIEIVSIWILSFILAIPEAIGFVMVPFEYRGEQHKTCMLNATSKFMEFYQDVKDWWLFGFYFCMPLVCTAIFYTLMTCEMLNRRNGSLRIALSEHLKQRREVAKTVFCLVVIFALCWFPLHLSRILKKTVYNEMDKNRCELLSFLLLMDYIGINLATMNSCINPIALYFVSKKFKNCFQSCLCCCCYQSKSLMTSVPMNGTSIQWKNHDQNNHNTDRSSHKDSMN

[6] = molecular target: Inward rectifier potassium channel 2 (Homo sapiens, UniProt P63252); test: Activity at human Kir2.1 at 10 uM
Sequence of Inward rectifier potassium channel 2 (P63252 whole entry): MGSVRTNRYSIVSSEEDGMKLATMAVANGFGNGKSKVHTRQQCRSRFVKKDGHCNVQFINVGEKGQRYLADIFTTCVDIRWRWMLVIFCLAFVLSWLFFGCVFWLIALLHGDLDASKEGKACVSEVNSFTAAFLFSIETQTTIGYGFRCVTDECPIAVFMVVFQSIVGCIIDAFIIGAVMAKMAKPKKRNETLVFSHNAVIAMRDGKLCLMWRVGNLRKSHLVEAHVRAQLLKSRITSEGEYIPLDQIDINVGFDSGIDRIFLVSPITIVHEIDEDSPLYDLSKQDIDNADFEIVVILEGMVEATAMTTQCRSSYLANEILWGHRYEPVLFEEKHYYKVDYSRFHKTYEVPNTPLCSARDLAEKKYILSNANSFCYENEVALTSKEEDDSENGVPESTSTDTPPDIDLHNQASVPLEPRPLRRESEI

[7] = AUClast in patient with advanced solid tumor at 240 mg, po administered once daily measured on day 15; assay type: ADME, organism-based; set-up: dose 240 mg, time 0 - last, route oral; conditions: human, in vivo
[8] = molecular target: Insulin receptor (Homo sapiens) (UniProt P06213); test: Activity at human IR at 10 uM
Sequence of Insulin receptor (Homo sapiens) (P06213 28-758 limits assumed): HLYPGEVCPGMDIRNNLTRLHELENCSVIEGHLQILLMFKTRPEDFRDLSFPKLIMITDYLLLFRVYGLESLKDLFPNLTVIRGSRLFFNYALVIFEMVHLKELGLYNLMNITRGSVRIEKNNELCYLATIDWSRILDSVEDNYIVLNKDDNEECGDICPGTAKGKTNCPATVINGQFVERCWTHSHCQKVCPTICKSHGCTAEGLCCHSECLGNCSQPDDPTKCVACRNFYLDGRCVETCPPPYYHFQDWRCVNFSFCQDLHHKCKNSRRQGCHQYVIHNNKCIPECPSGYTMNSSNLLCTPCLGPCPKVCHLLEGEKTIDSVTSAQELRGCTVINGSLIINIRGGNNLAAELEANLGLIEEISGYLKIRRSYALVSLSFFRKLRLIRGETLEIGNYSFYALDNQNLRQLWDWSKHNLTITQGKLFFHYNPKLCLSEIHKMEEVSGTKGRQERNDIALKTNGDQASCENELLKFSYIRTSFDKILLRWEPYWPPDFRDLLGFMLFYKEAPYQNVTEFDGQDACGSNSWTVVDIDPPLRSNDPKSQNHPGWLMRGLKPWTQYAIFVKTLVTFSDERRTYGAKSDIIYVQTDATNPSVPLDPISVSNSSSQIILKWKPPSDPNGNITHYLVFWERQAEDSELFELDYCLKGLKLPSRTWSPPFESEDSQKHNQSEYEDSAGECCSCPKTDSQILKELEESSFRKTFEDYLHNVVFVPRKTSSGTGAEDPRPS
Sequence of Insulin receptor (Homo sapiens) (P06213 763-1382 limits assumed): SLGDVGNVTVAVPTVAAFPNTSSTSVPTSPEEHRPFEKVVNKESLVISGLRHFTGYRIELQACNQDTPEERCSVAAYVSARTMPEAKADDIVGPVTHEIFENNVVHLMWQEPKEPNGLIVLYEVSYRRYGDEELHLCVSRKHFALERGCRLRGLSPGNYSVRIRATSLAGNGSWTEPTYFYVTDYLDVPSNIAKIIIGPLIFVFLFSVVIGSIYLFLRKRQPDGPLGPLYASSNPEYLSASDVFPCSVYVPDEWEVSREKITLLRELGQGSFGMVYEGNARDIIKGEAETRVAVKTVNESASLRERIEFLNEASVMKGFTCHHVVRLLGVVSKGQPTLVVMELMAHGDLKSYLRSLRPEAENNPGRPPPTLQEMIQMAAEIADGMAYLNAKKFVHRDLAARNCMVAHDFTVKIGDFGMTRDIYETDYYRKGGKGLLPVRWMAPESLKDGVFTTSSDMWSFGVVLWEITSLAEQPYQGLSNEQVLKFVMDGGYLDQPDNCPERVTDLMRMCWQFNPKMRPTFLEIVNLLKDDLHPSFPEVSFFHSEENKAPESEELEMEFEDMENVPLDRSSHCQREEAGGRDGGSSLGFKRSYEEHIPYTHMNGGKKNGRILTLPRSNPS

[9] = molecular target: Sodium channel protein type 5 subunit alpha (Homo sapiens, UniProt Q14524); test: Activity at human Nav1.5 at 10 uM
[10] = molecular target: Adenosine receptor A1 (Homo sapiens) (UniProt P30542); test: Activity at human adenosine A1 receptor at 10 uM
Sequence of Adenosine receptor A1 (Homo sapiens) (P30542 whole entry): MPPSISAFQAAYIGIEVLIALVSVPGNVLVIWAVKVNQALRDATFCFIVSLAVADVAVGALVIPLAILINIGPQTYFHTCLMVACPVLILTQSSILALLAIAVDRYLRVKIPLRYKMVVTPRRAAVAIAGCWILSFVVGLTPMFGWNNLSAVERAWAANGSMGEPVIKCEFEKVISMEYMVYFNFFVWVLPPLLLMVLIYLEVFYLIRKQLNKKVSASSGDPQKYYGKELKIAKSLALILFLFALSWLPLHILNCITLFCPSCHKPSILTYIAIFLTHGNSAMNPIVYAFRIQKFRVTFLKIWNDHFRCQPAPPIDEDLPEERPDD

[11] = Cmax in patient with advanced solid tumor at 240 mg, po administered once daily measured on day 15; assay type: ADME, organism-based; set-up: dose 240 mg, route oral; conditions: human, in vivo
[12] = Volume of distribution at steady state in Beagle dog at 1 mg/kg, iv by UPLC-MS analysis; assay type: ADME, organism-based, Canis lupus familiaris; conditions: in vivo, read-out: Vdss
[13] = molecular target: Substance-P receptor (Homo sapiens) (UniProt P25103); test: Activity at human NK1 receptor at 10 uM
Sequence of Substance-P receptor (Homo sapiens) (P25103 whole entry): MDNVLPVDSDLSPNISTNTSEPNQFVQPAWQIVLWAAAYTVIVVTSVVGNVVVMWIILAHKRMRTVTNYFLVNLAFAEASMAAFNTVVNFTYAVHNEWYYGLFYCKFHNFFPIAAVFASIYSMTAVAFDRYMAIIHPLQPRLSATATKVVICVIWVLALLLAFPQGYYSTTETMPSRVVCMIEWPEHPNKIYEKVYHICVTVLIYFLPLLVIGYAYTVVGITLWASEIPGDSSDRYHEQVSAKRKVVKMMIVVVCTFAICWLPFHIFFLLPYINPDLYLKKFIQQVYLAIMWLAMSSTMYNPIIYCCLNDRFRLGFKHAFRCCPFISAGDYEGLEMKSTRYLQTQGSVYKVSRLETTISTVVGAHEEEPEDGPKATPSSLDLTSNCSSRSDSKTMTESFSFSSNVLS

[14] = Cmax in patient with advanced solid tumor at 160 mg, po administered once daily measured on day 15; assay type: ADME, organism-based; set-up: dose 160 mg, route oral; conditions: human, in vivo
[15] = molecular target: 5'-AMP-activated protein kinase catalytic subunit alpha-1 (Homo sapiens) (UniProt Q13131); test: Activity at human AMPKalpha1 at 10 uM
[16] = Drug level in plasma of SCID Beige mouse xenografted with human 786-O cells at 1 mg/kg, po administered twice daily via gavage for 3 days measured 12 hrs post-last dose; assay type: ADME, organism-based
[17] = molecular target: Serine/threonine-protein kinase STK11 (Homo sapiens) (UniProt Q15831); test: Activity at human LKB1 at 10 uM
Sequence of Serine/threonine-protein kinase STK11 (Homo sapiens) (Q15831 whole entry): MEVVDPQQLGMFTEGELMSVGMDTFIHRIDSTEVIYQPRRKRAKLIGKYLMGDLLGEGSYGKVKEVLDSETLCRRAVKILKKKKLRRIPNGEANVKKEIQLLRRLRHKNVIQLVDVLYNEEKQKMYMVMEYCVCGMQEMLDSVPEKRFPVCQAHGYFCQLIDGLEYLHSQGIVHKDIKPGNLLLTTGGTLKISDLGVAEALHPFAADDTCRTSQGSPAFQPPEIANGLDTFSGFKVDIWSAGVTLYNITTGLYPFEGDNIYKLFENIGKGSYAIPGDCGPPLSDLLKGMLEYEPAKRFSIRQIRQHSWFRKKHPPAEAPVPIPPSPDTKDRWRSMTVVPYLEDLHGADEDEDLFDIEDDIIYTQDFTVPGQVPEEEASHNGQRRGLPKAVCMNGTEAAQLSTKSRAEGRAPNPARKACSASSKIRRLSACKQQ

[18] = Cmax in patient with advanced solid tumor at 80 mg, po administered once daily measured on day 15; assay type: ADME, organism-based; set-up: dose 80 mg, route oral; conditions: human, in vivo
[19] = molecular target: Prolactin-releasing peptide receptor (Homo sapiens) (UniProt P49683); test: Activity at human PRP receptor at 10 uM
Sequence of Prolactin-releasing peptide receptor (Homo sapiens) (P49683 whole entry): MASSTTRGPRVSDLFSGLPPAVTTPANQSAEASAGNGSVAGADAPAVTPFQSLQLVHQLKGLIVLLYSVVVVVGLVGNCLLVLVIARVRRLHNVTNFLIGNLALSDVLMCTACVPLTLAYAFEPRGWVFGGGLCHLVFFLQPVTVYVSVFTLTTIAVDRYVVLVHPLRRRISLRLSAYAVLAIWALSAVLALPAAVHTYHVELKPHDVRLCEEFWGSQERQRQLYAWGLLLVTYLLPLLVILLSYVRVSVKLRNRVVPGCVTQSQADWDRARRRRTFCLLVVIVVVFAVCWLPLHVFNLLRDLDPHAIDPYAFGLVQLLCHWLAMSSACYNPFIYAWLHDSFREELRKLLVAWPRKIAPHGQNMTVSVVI

Cytochrome P450 2D6 = Cytochrome P450 2D6 (Homo sapiens, UniProt P10635); test: Inhibition of CYP2D6 in human liver microsomes up to 50 uM using dextromethorphan as substrate measured after 10 mins in presence of NADPH by LC-MS/MS analysis; assay type: ADME
Cytochrome P450 2B6 = Cytochrome P450 2B6 (Homo sapiens, UniProt P20813); test: Inhibition of CYP2B6 in human liver microsomes up to 50 uM using bupropion as substrate measured after 10 mins in presence of NADPH by LC-MS/MS analysis; assay type: ADME
Sequence of Cytochrome P450 2B6 (P20813 whole entry): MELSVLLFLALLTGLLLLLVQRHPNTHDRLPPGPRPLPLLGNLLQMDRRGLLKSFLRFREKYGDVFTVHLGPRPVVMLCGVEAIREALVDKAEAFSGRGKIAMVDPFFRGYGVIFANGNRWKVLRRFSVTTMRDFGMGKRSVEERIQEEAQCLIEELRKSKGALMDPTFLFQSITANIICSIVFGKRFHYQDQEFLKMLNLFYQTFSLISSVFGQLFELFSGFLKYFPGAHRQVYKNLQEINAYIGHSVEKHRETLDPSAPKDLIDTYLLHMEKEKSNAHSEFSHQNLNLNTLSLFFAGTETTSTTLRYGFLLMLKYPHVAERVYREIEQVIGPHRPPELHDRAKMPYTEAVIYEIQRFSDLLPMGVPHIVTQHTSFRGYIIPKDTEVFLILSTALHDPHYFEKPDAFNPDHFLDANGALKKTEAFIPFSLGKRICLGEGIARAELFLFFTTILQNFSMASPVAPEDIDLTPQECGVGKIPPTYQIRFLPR

CS(=O)(=O)c1ccc(Oc2cc(F)cc(C#N)c2)c2c1[C@H](O)[C@H](F)[C@@H]2F [BELZUTIFAN]
Activity [1]: inactive | concentration at 24 h [2]: 190 ng/mL | half-life [3]: 1.4 h | inhibition (INH) (Cytochrome P450 2C9): Not Active | Activity [4]: inactive | Activity [5]: inactive | Activity [6]: Not Active | AUC(0-t) [7]: 28000 ng·h/mL | Activity [8]: inactive | Activity [9]: Not Active | Activity [10]: inactive | Cmax [11]: 2700 ng/mL | Vd [12]: 1.3 L/kg | Activity [13]: inactive | Cmax [14]: 2000 ng/mL | Activity [15]: inactive | concentration at 12 h [16]: 27 ng/mL | Activity [17]: inactive | Cmax [18]: 1400 ng/mL | Activity [19]: inactive | inhibition (INH) (Cytochrome P450 2D6): Not Active | inhibition (INH) (Cytochrome P450 2B6): Not Active

From ChEMBL document CHEMBL4311943, “3-[(1S,2S,3R)-2,3-Difluoro-1-hydroxy-7-methylsulfonylindan-4-yl]oxy-5-fluorobenzonitrile (PT2977), a Hypoxia-Inducible Factor 2α (HIF-2α) Inhibitor for the Treatment of Clear Cell Renal Cell Carcinoma” (J Med Chem, 2019)
